# Experiments:
# [1] = molecular target: T1, indoleamine 2,3-dioxygenase (IDO) (Homo sapiens, UniProt P14902); test: HeLa cell-based indoleamine 2,3-dioxygenase (IDO) assay (kynurenine production); conditions: HeLa cells, IFNγ 25 ng/mL, 48 hour incubation, absorbance at 480 nm
# T1 construct: host or cells: HeLa cells stimulated with IFNγ (25 ng/mL)
# human IDO1 = molecular target: T2, human IDO1 (Homo sapiens, UniProt P14902); test: IDO inhibition assay in HEK293 cells stably expressing human IDO1 (kynurenine, Ehrlich reagent); assay type: cell-based; conditions: 20 hours incubation, absorbance at 490 nm, read-out: IDO1 HEK Human IC50
# T2 construct: expressed in transfected cells
# T2 sequence (P14902 whole entry): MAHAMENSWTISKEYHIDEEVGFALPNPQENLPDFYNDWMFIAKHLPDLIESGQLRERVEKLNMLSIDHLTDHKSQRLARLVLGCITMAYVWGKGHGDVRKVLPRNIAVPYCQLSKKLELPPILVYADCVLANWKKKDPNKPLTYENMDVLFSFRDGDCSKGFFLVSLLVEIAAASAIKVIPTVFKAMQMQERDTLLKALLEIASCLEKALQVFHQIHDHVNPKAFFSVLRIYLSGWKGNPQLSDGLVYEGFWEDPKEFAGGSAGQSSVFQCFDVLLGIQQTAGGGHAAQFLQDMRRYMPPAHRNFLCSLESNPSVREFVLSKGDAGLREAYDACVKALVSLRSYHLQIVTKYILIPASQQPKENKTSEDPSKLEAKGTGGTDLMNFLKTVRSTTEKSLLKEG
# Experimental: HEK293 cells were transfected with a pCDNA-based mammalian expression vector harboring human IDO1 cDNA (NM 002164.2) by electroporation. They were cultured in medium (DMEM with 10% FBS) containing 1 mg/ml G418 for two weeks. Clones of HEK293 cells that stably expressed human IDO1 protein were selected and expanded for IDO inhibition assay.
# The human IDO1/HEK293 cells were seeded at 10,000 cells per 50 μL per well with RPMI/phenol red free media contains 10% FBS in a 384-well black wall clear bottom tissue culture plate (Matrix Technologies LLC) 100 nL of certain concentration of compound was then added to each well using ECHO liquid handling systems. The cells were incubated for 20 hours in 37° C. incubator with 5% CO2.
# The compound treatments were stopped by adding trichloroacetic acid (Sigma-Aldrich) to a final concentration at 0.2%. The cell plate was further incubated at 50° C. for 30 minute. The equal volume supernatant (20 μL) and 0.2% (w/v) Ehrlich reagent (4-dimethylaminobenzaldehyde, Sigma-Aldrich) in glacial acetic acid were mixed in a new clear bottom 384-well plate. This plate was then incubated at room temperature for 30 minute. The absorbance at 490 nm was measured on Envision plate reader.
# Compound IC50 values were calculated using the counts of 500 nM of a reference standard treatment as one hundred percent inhibition, and counts of no compound but DMSO treatment as zero percent inhibition.
# T1 sequence (P14902 whole entry): as above
IC50 [1] [nM],IC50 (human IDO1) [nM],SMILES
4.5,7,"C[C@@H](c1nc2ncc(Cl)cc2[nH]1)[C@H]1CC[C@@H](c2ccnc3ccc(F)cc32)CC1 [Example 6, 4-((cis)-4-((R)-1-(6-chloro-1H-imidazo[4,5-b]pyridin-2-yl)ethyl)cyclohexyl)-6-fluoroquinoline]"
5.7,4.1,"CCC(c1nc2ccc(Cl)cc2[nH]1)[C@H]1CC[C@H](Oc2ccnc3ccccc23)CC1 (single isomer, unassigned) [Example 13-1, 4-(((trans)-4-(1-(6-chloro-1H-benzo[d]imidazol-2-yl)propyl)cyclohexyl)oxy)quinoline]"

# From US11337970B2, “Inhibitors of indoleamine 2,3-dioxygenase and methods of their use” (BRISTOL-MYERS SQUIBB COMPANY, priority 2016, dated 2022)
